Source: article PMC5385555, “Molecular basis for the behavioral effects of the odorant degrading enzyme Esterase 6 in Drosophila” (Scientific Reports, 2017)

Target: T1, LUSH (Drosophila melanogaster, UniProt O02372)
T1 sequence (O02372 30-153): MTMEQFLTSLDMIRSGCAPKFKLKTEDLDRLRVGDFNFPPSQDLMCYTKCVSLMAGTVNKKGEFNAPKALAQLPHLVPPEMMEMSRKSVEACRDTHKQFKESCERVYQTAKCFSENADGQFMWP
Experiment: fluorescence titration
Type: binding
Settings: read-out: dissociation constant
Protocol: fluorescence titration on LUSH | A saturable NPN fluorescence change was recorded by a fluorometer and the dissociation constant

`c1ccc(Nc2cccc3ccccc23)cc1` [N-phenyl-1-naphthylamine] gave a Kd of 2390 nM.
